Results from ChEMBL document CHEMBL3351419, “Orally bioavailable 6-chloro-7-methoxy-4(1H)-quinolones efficacious against multiple stages of Plasmodium” (J Med Chem, 2014).
Values after ≈ are worked out from the molar mass of the structure shown.

How the values were obtained:
J774 = experiment: Cytotoxicity against mouse J774 cells after 72 hrs by CellTiter 96 assay; format: cell-based; details: J774, 72 h
[1] = Cytotoxicity index, ratio of EC50 for mouse J774 cells to EC50 for multi-drug-resistant Plasmodium falciparum TM90-C2B infected in human type A+ erythrocytes; format: toxicity, cell-based; details: read-out: Ratio EC50
[2] = Intrinsic clearance in human liver microsomes at 1 uM by LC-MS analysis; format: ADME; details: liver microsomes, read-out: CLH
[3] = Resistance index, ratio of EC50 for multi-drug-resistant Plasmodium falciparum TM90-C2B infected in human type A+ erythrocytes to EC50 for multi-drug-resistant Plasmodium falciparum W2 infected in human type A+ erythrocytes; format: functional
Plasmodium falciparum [4] = experiment: Antimalarial activity against multi-drug-resistant Plasmodium falciparum TM90-C2B infected in human type A+ erythrocytes assessed as growth inhibition after 72 hrs by SYBR Green I assay; format: functional, organism-based
Plasmodium falciparum [5] = experiment: Antimalarial activity against multi-drug-resistant Plasmodium falciparum W2 infected in human type A+ erythrocytes assessed as growth inhibition after 72 hrs by SYBR Green I assay; format: functional, organism-based; details: W2, 72 h
[6] = Plasma clearance in Sprague-Dawley rat at 0.15 mg/kg, iv; format: ADME, organism-based; set-up: dose 0.15 mg/kg, route intravenous
Plasmodium berghei [7] = experiment: Antimalarial activity against Plasmodium berghei ANKA expressing GFP infected in Balb/c mouse assessed as mouse survival at 10 mg/kg, po qd administered as single dose on day 3 to 5 of exposure measured on day 6 post exposure by in vivo thomson test relative to control; format: functional
[8] = Aqueous solubility of the compound at pH 7.4; format: physicochemical; details: buffer
Plasmodium berghei [9] = experiment: Antimalarial activity against Plasmodium berghei ANKA expressing GFP infected in Balb/c mouse assessed as inhibition of parasitemia at 50 mg/kg, po qd administered as single dose on day 3 to 5 of exposure measured on day 6 post exposure by in vivo thomson test relative to control; format: functional
[10] = Apparent oral bioavailability in Sprague-Dawley rat at 10 mg/kg; format: ADME, organism-based; details: in vivo
Rattus norvegicus = experiment: Half life in Sprague-Dawley rat at 0.15 mg/kg, iv; format: ADME, organism-based; set-up: dose 0.15 mg/kg, route intravenous; details: in vivo
Plasmodium berghei [11] = experiment: Antimalarial activity against Plasmodium berghei ANKA expressing GFP infected in Balb/c mouse assessed as inhibition of parasitemia at 1 mg/kg, po qd administered as single dose on day 3 to 5 of exposure measured on day 6 post exposure by in vivo thomson test relative to control; format: functional
Plasmodium berghei [12] = experiment: Antimalarial activity against Plasmodium berghei ANKA expressing GFP infected in Balb/c mouse assessed as inhibition of parasitemia at 10 mg/kg, po qd administered as single dose on day 3 to 5 of exposure measured on day 6 post exposure by in vivo thomson test relative to control; format: functional
Plasmodium berghei [13] = experiment: Antimalarial activity against Plasmodium berghei ANKA expressing GFP infected in Balb/c mouse assessed as mouse cured from disease at 3 mg/kg, po qd administered as single dose on day 3 to 5 of exposure measured on day 30 post exposure by in vivo thomson test relative to control; format: functional
Plasmodium berghei [14] = experiment: Antimalarial activity against Plasmodium berghei ANKA expressing GFP infected in Balb/c mouse assessed as mouse cured from disease at 50 mg/kg, po qd administered as single dose on day 3 to 5 of exposure measured on day 30 post exposure by in vivo thomson test relative to control; format: functional
Plasmodium berghei [15] = experiment: Antimalarial activity against Plasmodium berghei ANKA expressing GFP infected in Balb/c mouse assessed as mouse survival at 50 mg/kg, po qd administered as single dose on day 3 to 5 of exposure measured on day 6 post exposure by in vivo thomson test relative to control; format: functional
Plasmodium berghei [16] = experiment: Antimalarial activity against Plasmodium berghei ANKA expressing GFP infected in Balb/c mouse assessed as inhibition of parasitemia at 3 mg/kg, po qd administered as single dose on day 3 to 5 of exposure measured on day 6 post exposure by in vivo thomson test relative to control; format: functional
Plasmodium berghei [17] = experiment: Antimalarial activity against Plasmodium berghei ANKA expressing GFP infected in Balb/c mouse assessed as mouse cured from disease at 10 mg/kg, po qd administered as single dose on day 3 to 5 of exposure measured on day 30 post exposure by in vivo thomson test relative to control; format: functional
[18] = octanol/water, pH 7.4
Plasmodium berghei [19] = experiment: Antimalarial activity against Plasmodium berghei ANKA expressing GFP infected in Balb/c mouse assessed as mouse survival at 3 mg/kg, po qd administered as single dose on day 3 to 5 of exposure measured on day 6 post exposure by in vivo thomson test relative to control; format: functional
[20] = Volume of distribution in Sprague-Dawley rat at 0.15 mg/kg, iv; format: ADME, organism-based; set-up: dose 0.15 mg/kg, route intravenous; details: in vivo
Plasmodium berghei [21] = experiment: Antimalarial activity against Plasmodium berghei ANKA expressing GFP infected in Balb/c mouse assessed as mouse survival at 1 mg/kg, po qd administered as single dose on day 3 to 5 of exposure measured on day 6 post exposure by in vivo thomson test relative to control; format: functional
Plasmodium berghei [22] = experiment: Antimalarial activity against Plasmodium berghei ANKA expressing GFP infected in Balb/c mouse assessed as mouse survival at 30 mg/kg, po qd administered as single dose on day 3 to 5 of exposure measured on day 6 post exposure by in vivo thomson test relative to control; format: functional
Plasmodium berghei [23] = experiment: Antimalarial activity against Plasmodium berghei ANKA expressing GFP infected in Balb/c mouse assessed as inhibition of parasitemia at 0.3 mg/kg, po qd administered as single dose on day 3 to 5 of exposure measured on day 6 post exposure by in vivo thomson test relative to control; format: functional
[24] = pampa, pH 7.4
Description: Effective permeability of the compound at pH 7.4 by PAMPA

Plasmodium berghei [25] = experiment: Antimalarial activity against Plasmodium berghei ANKA expressing GFP infected in Balb/c mouse assessed as mouse survival at 0.3 mg/kg, po qd administered as single dose on day 3 to 5 of exposure measured on day 6 post exposure by in vivo thomson test relative to control; format: functional
Liver = experiment: Half life in mouse liver microsomes at 1 uM by LC-MS analysis; format: ADME

| Structure (SMILES) | EC50 (J774) | selectivity ratio [1] | Ratio EC50 [3] | EC50 (Plasmodium falciparum [4]) | EC50 (Plasmodium falciparum [5]) | survival time at 10 mg/kg (Plasmodium berghei [7]) | solubility kinetic [8] | inhibition in vivo at 1 mg/kg (Plasmodium berghei [11]) | inhibition in vivo at 10 mg/kg (Plasmodium berghei [12]) | Activity (Plasmodium berghei [13]) | inhibition in vivo at 3 mg/kg (Plasmodium berghei [16]) | Activity (Plasmodium berghei [17]) | logD [18] | survival time at 3 mg/kg (Plasmodium berghei [19]) | survival at 1 mg/kg (Plasmodium berghei [21]) | further results |
| --- | --- | --- | --- | --- | --- | --- | --- | --- | --- | --- | --- | --- | --- | --- | --- | --- |
| COc1cc2[nH]c(C)c(-c3cccnc3)c(=O)c2cc1Cl | > 33.3 µM | > 277 | 0.16 | 0.12 µM | 0.748 µM | – | – | – | – | – | – | – | – | – | – | microsomal CLint at 1 µM [2]: 15 µL/min/mg |
| COc1cc2[nH]c(C)c(-c3ccc(Oc4ccc(OC(F)(F)F)cc4)cc3F)c(=O)c2cc1Cl | > 20.2 µM | > 1330 | 4.07 | 0.0152 µM | 0.00374 µM | 23 days | < 2 µM | 99.3% | 99.5% | 100% | 99.3% | 100% | 3.4 | 23 days | 23 days | clearance [6]: 0.018 L/h/kg; inhibition in vivo at 50 mg/kg (Plasmodium berghei [9]): 99.2%; bioavailability [10]: 14%; t1/2 (Rattus norvegicus): 32 h; Activity (Plasmodium berghei [14]): 100%; mouse survival time at 50 mg/kg (Plasmodium berghei [15]): 23 days; Vd [20]: 0.7 L/kg |
| CCN(CC)Cc1cc(Nc2ccnc3cc(Cl)ccc23)ccc1O [AMODIAQUINE] | – | – | – | – | – | – | – | – | – | – | – | – | – | – | – | survival at 30 mg/kg (Plasmodium berghei [22]): 23 days |
| COc1cc2[nH]c(C)c(-c3ccc(-c4ccc(C(F)(F)F)cc4F)nc3)c(=O)c2cc1Cl | > 21.6 µM | > 20400 | 1.76 | 0.00106 µM | 0.000602 µM | 23 days | 6 to 12 µM (≈ 2.78 to 5.55 µg/mL) | 94.5% | 95.2% | 100% | 96.3% | 100% | 3.7 | 23 days | 23 days | inhibition in vivo at 0.3 mg/kg (Plasmodium berghei [23]): 94.3%; Peff [24]: 10700 nm/s; survival at 0.3 mg/kg (Plasmodium berghei [25]): 23 days |
| CCCCCCCc1c(C)nc2cc(OC)ccc2c1O | – | – | – | – | – | – | – | – | – | – | – | – | – | – | – | t1/2 (Liver): 7.9 min |
